Reference: patent US20210196751A1, “METHODS OF CANCER TREATMENT USING AN ATR INHIBITOR” (Vertex Pharmaceuticals Incorporated, priority 2017, published 2021)

Test system: panel of 552 cancer cell lines
Experiment: Growth inhibition (ATPLite) of ATR inhibitor in combination with cisplatin or gemcitabine; synergy score from AUC difference
Type: cell-based
Settings: 96 hours; for synergy when combined with cisplatin: in combination with cisplatin; for synergy when combined with gemcitabine: in combination with gemcitabine
Procedure: Cell Culture Methods. Cells were removed from liquid nitrogen storage, thawed and expanded in appropriate growth media. Once expanded, cells were seeded in 384-well tissue culture treated plates at 500 cells per well. […] At the end of either 0 hours or 96 hours, cell status was analyzed using ATPLite (adenosine triphosphate monitoring system; Perkin Elmer) to assess the biological response of cells to drug combinations.
In this study, growth inhibition (GI) was used as the primary endpoint. ATP monitoring was performed using ATPLite, which allows for the monitoring of cytocidal, cytostatic and proliferative effects of drugs on cells.
Data Analysis to Assess Synergy of Combination Treatments. […] Synergy was evaluated using the sum of the AUC (Area Under the Curve) difference.
Briefly, combination treatment effect was calculated as the AUC normalized to the single agent effect of the ATR inhibitor compound. Total synergy or antagonism was calculated as the difference between the normalized combination AUC and the genotoxin single agent AUC. As before, the synergy score was normalized by dividing the total synergy score by the total number of regimens used.

Structure (SMILES)	synergy when combined with cisplatin	synergy when combined with gemcitabine
Nc1nn2cc(F)cnc2c1C(=O)Nc1cncc(F)c1N1CCC(C(=O)N2CCN(C3COC3)CC2)CC1 [I-G-32]	synergistic	synergistic
CNCc1ccc(-c2cc(-c3nc(-c4ccc(S(=O)(=O)C(C)C)cc4)cnc3N)on2)cc1 [IIA-7]	synergistic	synergistic
